Measurements reported in ChEMBL document CHEMBL6092220 (J Med Chem, 2024).
The source made the active and inactive calls. The calls are words filed in the database; no cut-off is given here.

Columns and labels:
[1] = Drug concentration in female CB17 SCID mouse spleen at 5 mg/kg, iv measured at 3 hrs by LC-MS/MS analysis; type: ADME, organism-based; conditions: read-out: Ct
Homo sapiens = species: Homo sapiens; assay: Binding affinity to STAT5 (unknown origin) assessed as maximum inhibition by FP assay relative to control
SU-DHL-1 [2] = assay: PROTAC activity at STAT5/CRBN in human SU-DHL-1 cells assessed as reduction in STAT5 level upto 40 uM incubated for 20 hrs by Western blot analysis; type: cell-based
[3] = target: T1, Protein cereblon/Signal transducer and activator of transcription 3 (Homo sapiens, UniProt P40763+Q96SW2); assay: PROTAC activity at his-SUMO-tagged STAT3 (127 to 688 residues)/CRBN in human PBMC cells assessed as reduction in STAT3 level upto 40 uM incubated for 20 hrs by Western blot analysis relative to control; type: cell-based; parameters: scale not given: the % may be the effect or the level left
[4] = Half life in Beagle dog at 1 mg/kg, iv; type: ADME, organism-based, Canis lupus familiaris; conditions: in vivo
[5] = Cmax in ICR mouse at 5 mg/kg, iv; type: ADME, organism-based; conditions: in vivo
[6] = Stability in rat Hepatocyte assessed as half life; type: ADME, cell-based; conditions: hepatocytes
[7] = target: Signal transducer and activator of transcription 6 (Homo sapiens, UniProt P42226); assay: Binding affinity to STAT6 (unknown origin) by FP assay
[8] = Drug concentration in female CB17 SCID mouse plasma at 5 mg/kg, iv measured at 48 hrs by LC-MS/MS analysis; type: ADME, organism-based
[9] = Drug concentration in female CB17 SCID mouse tumor at 5 mg/kg, iv measured at 72 hrs by LC-MS/MS analysis; type: ADME, organism-based, Neoplasm; conditions: read-out: Ct
[10] = Drug concentration in female CB17 SCID mouse plasma at 5 mg/kg, iv measured at 3 hrs by LC-MS/MS analysis; type: ADME, organism-based
Cytochrome P450 2C19 = Cytochrome P450 2C19 (Homo sapiens, UniProt P33261); assay: Inhibition of CYP2C19 (unknown origin); type: ADME
[11] = target: T1, Protein cereblon/Signal transducer and activator of transcription 3; assay: PROTAC activity at his-SUMO-tagged STAT3 (127 to 688 residues)/CRBN in human SU-DHL-1 cells assessed as reduction in STAT3 level at 0.1 to 4000 nM incubated for 20 hrs by Western blot analysis relative to control; type: cell-based; conditions: dose 0.1-4000 nM
[12] = target: T2, Protein cereblon/Signal transducer and activator of transcription 4 (Homo sapiens, UniProt Q96SW2+Q14765); assay: PROTAC activity at STAT4/CRBN in human SU-DHL-1 cells assessed as reduction in STAT4 level incubated for 20 hrs by Western blot analysis; type: cell-based; conditions: dose <= 40.0 µM
[13] = Apparent permeability across apical to basolateral side in human Caco-2 cells; type: ADME, cell-based
[14] = target: T1, Protein cereblon/Signal transducer and activator of transcription 3; assay: PROTAC activity at his-SUMO-tagged STAT3 (127 to 688 residues)/CRBN in human MOLM16 cells assessed as reduction in STAT3 level at 10 uM incubated for 4 hrs by multiplexed quantitative proteomics analysis relative to control; type: cell-based; parameters: scale not given: the % may be the effect or the level left
[15] = AUC (0 to t) in ICR mouse at 5 mg/kg, iv; type: ADME, organism-based; conditions: in vivo
[16] = target: Protein cereblon/Signal transducer and activator of transcription 1-alpha/beta (Homo sapiens, UniProt P42224+Q96SW2); assay: PROTAC activity at STAT1/CRBN in human MOLM16 cells assessed as reduction in STAT1 level at > 8 uM incubated for 4 hrs by Western blot analysis; type: cell-based
[17] = target: Signal transducer and activator of transcription 3 (Homo sapiens, UniProt P40763); assay: Binding affinity to STAT3 (unknown origin) assessed as maximum inhibition by FP assay relative to control
[18] = Apparent volume of distribution in Sprague-Dawley rat at 5 mg/kg, iv; type: ADME, organism-based; conditions: in vivo, read-out: Vz
[19] = target: Protein cereblon/Signal transducer and activator of transcription 3 (Homo sapiens, UniProt P40763+Q96SW2, K658R); assay: (§1) PROTAC activity at STAT3/CRBN in human Pfeiffer cells transfected with STAT3 K658R mutant assessed as reduction in STAT3 level incubated for 20 hrs by Western blot analysis; type: cell-based
[20] = target: T1, Protein cereblon/Signal transducer and activator of transcription 3; assay: as §1; type: cell-based; conditions: dose <= 40.0 µM
[21] = target: T1, Protein cereblon/Signal transducer and activator of transcription 3; assay: PROTAC activity at his-SUMO-tagged STAT3 (127 to 688 residues)/CRBN in human SU-DHL-1 cells assessed as reduction in STAT3 level upto 40 uM incubated for 20 hrs by Western blot analysis relative to control; type: cell-based; parameters: scale not given: the % may be the effect or the level left
[22] = target: T1, Protein cereblon/Signal transducer and activator of transcription 3; assay: PROTAC activity at STAT3/CRBN in human MOLM16 cells assessed as reduction in STAT3 level at 340 nM incubated for 4 hrs by Western blot analysis; type: cell-based; parameters: scale not given: the % may be the effect or the level left
[23] = target: Protein cereblon/Signal transducer and activator of transcription 2 (Homo sapiens) (UniProt Q96SW2+P52630); assay: PROTAC activity at STAT2/CRBN in human SU-DHL-1 cells assessed as reduction in STAT2 level upto 40 uM incubated for 20 hrs by Western blot analysis; type: cell-based
[24] = target: T1, Protein cereblon/Signal transducer and activator of transcription 3; assay: PROTAC activity at his-SUMO-tagged STAT3 (127 to 688 residues)/CRBN in human HeLa cells assessed as induction of STAT3 degradation incubated for 24 hrs by TECAN SPARK microplate reader analysis relative to control; type: cell-based
[25] = Drug concentration in female CB17 SCID mouse tumor at 5 mg/kg, iv measured at 24 hrs by LC-MS/MS analysis; type: ADME, organism-based, Neoplasm; conditions: read-out: Ct
[26] = target: T3, Protein cereblon/Signal transducer and activator of transcription 3 (Mus musculus) (UniProt P42227+Q8C7D2); assay: In-vivo PROTAC activity at STAT3/CRBN in female CB17 SCID mouse assessed as reduction in STAT3 level liver at 5 mg/kg, iv measured at 72 hrs by immunobloting analysis; type: functional, organism-based; parameters: scale not given: the % may be the effect or the level left
[27] = target: T1, Protein cereblon/Signal transducer and activator of transcription 3; assay: PROTAC activity at STAT3/CRBN in human MOLM16 cells assessed as reduction in STAT3 level at 64 nM incubated for 4 hrs by Western blot analysis; type: cell-based
[28] = target: T1, Protein cereblon/Signal transducer and activator of transcription 3; assay: PROTAC activity at his-SUMO-tagged STAT3 (127 to 688 residues)/CRBN in human SU-DHL-1 cells assessed as reduction in STAT3 level incubated for 20 hrs by Western blot analysis; type: cell-based
[29] = Antitumor activity against human MOLM16 cells xenografted in mouse assessed as tumor regression at 10 to 20 mg/kg, iv; type: functional, MOLM-16; conditions: dose 10-20 mg/kg
SU-DHL-1 [30] = assay: Antiproliferative activity against human SU-DHL-1 cells assessed as cell growth inhibition incubated for 4 days by celltiter-glo assay; type: functional, cell-based; conditions: SU-DHL-1, 96 h
[31] = target: T3, Protein cereblon/Signal transducer and activator of transcription 3 (Mus musculus); assay: In-vivo PROTAC activity at STAT3/CRBN in female CB17 SCID mouse assessed as reduction STAT3 level liver at 10 mg/kg, iv measured at 48 hrs by Western blot analysis; type: functional, organism-based; parameters: scale not given: the % may be the effect or the level left
[32] = target: T2, Protein cereblon/Signal transducer and activator of transcription 4; assay: PROTAC activity at STAT4/CRBN in human MOLM16 cells assessed as reduction in STAT4 level incubated for 4 hrs by Western blot analysis; type: cell-based
[33] = Drug concentration in female CB17 SCID mouse spleen at 5 mg/kg, iv measured at 1 hr by LC-MS/MS analysis; type: ADME, organism-based; conditions: read-out: Ct
[34] = Stability in mouse Hepatocyte assessed as half life; type: ADME, cell-based; conditions: hepatocytes

## COC(=O)N1CC[C@H]2CC[C@@H](C(=O)N[C@@H](CCC(N)=O)C(=O)N[C@@H](Cc3ccc(F)c(F)c3)C(=O)N3CCC(CCC#Cc4cccc5c4CN(C4CCC(=O)NC4=O)C5=O)CC3)N2C(=O)[C@@H](NC(=O)c2cc3cc(C(F)(F)P(=O)(O)O)ccc3s2)C1 (stereo partly specified)
[1]
  concentration at 3 h: 1920 ng/g
Homo sapiens
  Imax: 50%
SU-DHL-1 [2]
  Activity: inactive
[3]
  Activity: > 95%
[4]
  half-life: 2.3 h
[5]
  Cmax: 130000 ng/mL
[6]
  t1/2: > 2 h
[7]
  IC50: > 10 µM
[8]
  concentration at 48 h: 12400 ng/mL
[9]
  concentration at 72 h: 925 ng/g
[10]
  concentration at 3 h: 31200 ng/mL
Cytochrome P450 2C19
  IC50: > 10 µM
[11]
  Emax: > 95%
[12]
  Activity: Dose-dependent-effect
[13]
  Papp: 0.14 10^-6 cm/s
[14]
  Activity: 85%
[15]
  AUC(0-t): 859 µg·h/mL
[16]
  Activity: Active
[17]
  Imax: 100%
[18]
  Vd: 0.12 L/kg
[19]
  DC50: 0.0025 µM
[20]
  Activity: Dose-dependent-effect
[21]
  Activity: > 95%
[22]
  Activity: 100%
[23]
  Activity: inactive
[24]
  Emax: 84%
[25]
  concentration at 24 h: 1800 ng/g
[26]
  Activity: > 90%
[27]
  Activity: Active
[28]
  DC50: 0.01 µM
[29]
  Activity: 100%
SU-DHL-1 [30]
  IC50: 0.43 µM
[31]
  Activity: > 90%
[32]
  Activity: inactive
[33]
  concentration at 1 h: 2870 ng/g
[34]
  t1/2: > 2 h
